Source: the NIST ThermoML archive (doi:10.1021/acs.jced.7b01026)
± gives the expanded uncertainty stated by the source.

What was measured:
[1] = Crystal; DTA
[2] = Molar enthalpy of transition or fusion; settings: Crystal; DSC
[3] = molar heat capacity at constant pressure
[4] = Boiling temperature at pressure P; settings: 100 kPa; Glass; DTA

COc1cccc(OC)c1O [1,3-dimethoxy-2-hydroxybenzene]
Settings	Molar enthalpy of transition or fusion [kJ/mol]	Normal melting temperature [°C]
[1]	–	53.2 ± 2
[2]	50.3 ± 1.8	–

[3], 101.33 kPa, Liquid, DSC
Settings	molar heat capacity at constant pressure [J/K/mol]
333.16 K	317.27 ± 13
373.15 K	328.21 ± 13
413.14 K	333.46 ± 14
453.12 K	347.18 ± 14
493.1 K	357.35 ± 14

CCC(O)c1ccccc1 (stereo not given) [1-phenyl-1-propanol]
Settings	Boiling temperature at pressure P [°C]	Normal melting temperature [°C]
[1]	–	-10.6 ± 2
[4]	-74.3 ± 2	–

[3], 101.33 kPa, Liquid, DSC
Settings	molar heat capacity at constant pressure [J/K/mol]
273.15 K	279.6 ± 11
323.15 K	319.91 ± 13
373.15 K	338.03 ± 14
423.15 K	352.6 ± 14
473.15 K	368.94 ± 15

CC(O)Cc1ccccc1 (stereo not given) [1-phenyl-2-propanol]
Settings	Boiling temperature at pressure P [°C]
[4]	-72.5 ± 2

[3], 101.33 kPa, Liquid, DSC
Settings	molar heat capacity at constant pressure [J/K/mol]
273.15 K	282.05 ± 11
323.15 K	311.06 ± 13
373.15 K	329.31 ± 13
423.15 K	345.52 ± 14
473.15 K	354.78 ± 14

CCCOCC(C)O (stereo not given) [1-propoxy-2-propanol]
[3], 101.33 kPa, Liquid, DSC
Settings	molar heat capacity at constant pressure [J/K/mol]
193.19 K	237.41 ± 9.7
223.15 K	247.93 ± 10
273.16 K	271.09 ± 11
323.16 K	290.12 ± 12
373.15 K	314.7 ± 13

FC(F)C(F)(F)C(F)(F)C(F)(F)C(F)(F)C(F)(F)C(F)(F)C(F)(F)F [1H-perfluorooctane]
Settings	Molar enthalpy of transition or fusion [kJ/mol]	Normal melting temperature [°C]
[1]	–	-18.8 ± 2
[2]	9.87 ± 4.2	–

[3], 101.33 kPa, Liquid, DSC
Settings	molar heat capacity at constant pressure [J/K/mol]
258.16 K	446.11 ± 18
273.16 K	458.71 ± 18
298.16 K	480.14 ± 19
323.16 K	494.84 ± 20
373.14 K	526.76 ± 21

Cc1ccc(C)o1 [2,5-dimethylfuran]
[3], 101.33 kPa, Liquid, DSC
Settings	molar heat capacity at constant pressure [J/K/mol]
213.15 K	159.28 ± 6.4
253.15 K	163.99 ± 6.6
293.15 K	170.63 ± 6.9
333.15 K	184.95 ± 7.5

CC(C)c1ccccc1O [2-(1-methylethyl)phenol]
Settings	Molar enthalpy of transition or fusion [kJ/mol]	Normal melting temperature [°C]
[1]	–	12 ± 4
[2]	11 ± 1.4	–

molar heat capacity at constant pressure [J/K/mol], [3], 101.33 kPa
Settings	273.15 K	323.15 K	373.15 K	423.15 K	473.15 K
DSC, Liquid	–	307.38 ± 13	321.55 ± 13	337.89 ± 14	354.37 ± 14
Metastable liquid, DSC	281.92 ± 11	–	–	–	–

C/C=C/c1ccc(O)c(OC)c1 [2-methoxy-4-(1E)-1-propen-1-yl-phenol]
Settings	Molar enthalpy of transition or fusion [kJ/mol]	Normal melting temperature [°C]
[1]	–	21.6 ± 2
[2]	11.7 ± 1.7	–

[3], 101.33 kPa, Liquid, DSC
Settings	molar heat capacity at constant pressure [J/K/mol]
298.15 K	326.92 ± 13
323.15 K	336.45 ± 14
373.15 K	348.43 ± 14
423.15 K	381.6 ± 15
473.15 K	387.19 ± 16

Cc1ccccc1C=O [2-methylbenzaldehyde]
Settings	Molar enthalpy of transition or fusion [kJ/mol]	Normal melting temperature [°C]
[1]	–	-39.7 ± 2
[2]	10.2 ± 1.2	–

[3], 101.33 kPa, Liquid, DSC
Settings	molar heat capacity at constant pressure [J/K/mol]
238.16 K	184.43 ± 7.4
293.16 K	199.57 ± 8.2
348.15 K	217.83 ± 8.9
403.13 K	230.69 ± 9.4
458.11 K	261.08 ± 11

CC(CO)c1ccccc1 (stereo not given) [2-phenyl-1-propanol]
Settings	Boiling temperature at pressure P [°C]
[4]	-75.5 ± 2

[3], 101.33 kPa, Liquid, DSC
Settings	molar heat capacity at constant pressure [J/K/mol]
273.15 K	273.34 ± 11
323.15 K	300.98 ± 12
373.15 K	325.91 ± 13
423.15 K	341.98 ± 14
473.15 K	351.78 ± 14

Cc1cccc(C=O)c1 [3-methylbenzaldehyde]
Settings	Normal melting temperature [°C]
[1]	-48.4 ± 2

[3], 101.33 kPa, Liquid, DSC
Settings	molar heat capacity at constant pressure [J/K/mol]
273.17 K	189.47 ± 7.7
313.16 K	205.93 ± 8.4
353.15 K	219.75 ± 8.9
393.14 K	235.61 ± 9.6
453.11 K	258.08 ± 10

Cc1cccc(CO)c1 [3-methylbenzyl alcohol]
Settings	Molar enthalpy of transition or fusion [kJ/mol]	Normal melting temperature [°C]
[1]	–	-8.8 ± 2
[2]	13.6 ± 1.2	–

[3], 101.33 kPa, DSC, Liquid
Settings	molar heat capacity at constant pressure [J/K/mol]
266.15 K	222.22 ± 9
306.15 K	250.8 ± 10
356.15 K	281.1 ± 11
406.15 K	295.27 ± 12
456.15 K	308.1 ± 12

Cc1ccc(C=O)cc1 [4-methylbenzaldehyde]
Settings	Molar enthalpy of transition or fusion [kJ/mol]	Normal melting temperature [°C]
[1]	–	-10.0 ± 2
[2]	11 ± 1.2	–

[3], 101.33 kPa, DSC, Liquid
Settings	molar heat capacity at constant pressure [J/K/mol]
273.17 K	191.4 ± 7.8
313.16 K	204.25 ± 8.3
353.15 K	216.27 ± 8.8
393.14 K	232.37 ± 9.5
453.11 K	250.99 ± 10

Cc1ccc(C(=O)O)cc1 [4-methylbenzoic acid]
Settings	Molar enthalpy of transition or fusion [kJ/mol]	Normal melting temperature [°C]
[1]	–	179.0 ± 2
[2]	21.5 ± 1.5	–

[3], 101.33 kPa, Liquid, DSC
Settings	molar heat capacity at constant pressure [J/K/mol]
458.15 K	331.25 ± 13
473.15 K	338.33 ± 14
488.15 K	347.59 ± 14
503.15 K	353.98 ± 14
523.15 K	362.02 ± 15

Cc1ccc(C=O)o1 [5-methylfurfural]
Settings	Molar enthalpy of transition or fusion [kJ/mol]	Normal melting temperature [°C]
[1]	–	-32.6 ± 2
[2]	11.6 ± 1.1	–

[3], 101.33 kPa, Liquid, DSC
Settings	molar heat capacity at constant pressure [J/K/mol]
250.15 K	180.47 ± 7.4
300.15 K	192.47 ± 7.8
350.14 K	202.49 ± 8.3
400.13 K	219.34 ± 8.9
450.1 K	233.54 ± 9.5

CCOC(=O)Cc1ccccc1 [ethyl phenylacetate]
Settings	Molar enthalpy of transition or fusion [kJ/mol]	Normal melting temperature [°C]
[1]	–	-29 ± 2
[2]	18.1 ± 1.6	–

[3], 101.33 kPa, Liquid, DSC
Settings	molar heat capacity at constant pressure [J/K/mol]
253.15 K	271.75 ± 11
293.15 K	288.83 ± 12
333.15 K	292.77 ± 12
373.15 K	306.89 ± 12
413.15 K	326.27 ± 13

CCCCCCC1CCCCC1 [hexylcyclohexane]
Settings	Molar enthalpy of transition or fusion [kJ/mol]	Normal melting temperature [°C]
[1]	–	-48.2 ± 2
[2]	20.5 ± 1.7	–

[3], 101.33 kPa, Liquid, DSC
Settings	molar heat capacity at constant pressure [J/K/mol]
228.16 K	292.03 ± 12
288.16 K	330.24 ± 13
348.14 K	361.21 ± 15
408.13 K	408.85 ± 17
468.09 K	463.72 ± 19

CC(=O)Oc1ccccc1 [phenyl ethanoate]
Settings	Molar enthalpy of transition or fusion [kJ/mol]	Normal melting temperature [°C]
[1]	–	-7 ± 2
[2]	12.8 ± 1.4	–

[3], 101.33 kPa, Liquid, DSC
Settings	molar heat capacity at constant pressure [J/K/mol]
253.15 K	220.42 ± 9
293.15 K	224.78 ± 9.1
333.15 K	240.03 ± 9.8
373.15 K	255.41 ± 10
413.15 K	269.44 ± 11

CCCCCC(=O)CCCCC [undecan-6-one]
Settings	Molar enthalpy of transition or fusion [kJ/mol]	Normal melting temperature [°C]
[1]	–	13 ± 2
[2]	31.3 ± 1.9	–

[3], 101.33 kPa, Liquid, DSC
Settings	molar heat capacity at constant pressure [J/K/mol]
293.16 K	363.74 ± 15
343.16 K	381.62 ± 15
373.15 K	402.4 ± 16
423.13 K	422.49 ± 17
473.1 K	463.02 ± 19
